Here are results for seven molecules from PMC5079767 (Bioorganic & medicinal chemistry letters, 2016).

For series [1], the target named is cysteine adenylation domain of HMWP2 (residues 1–1491) (Yersinia pestis, UniProt A0A2S9PH42). The series is classed as biochemical.
For series [2], the system named is Y. pestis. Conditions: cited from earlier work.
In series [3] the test system is Escherichia coli, Bacillus subtilis, Mycobacterium smegmatis. Particulars: cited from earlier work.
Series [4] concerns aminoacyl-tRNA synthetases. Format: biochemical, rabbit.
The subject of series [5] is Y. pestis. The series is classed as cell-based, Yersinia pestis.

Like-named read-outs stand apart in the source and are kept apart here.

Chain of cysteine adenylation domain of HMWP2 (residues 1–1491) (A0A2S9PH42 1-1491 limits assumed): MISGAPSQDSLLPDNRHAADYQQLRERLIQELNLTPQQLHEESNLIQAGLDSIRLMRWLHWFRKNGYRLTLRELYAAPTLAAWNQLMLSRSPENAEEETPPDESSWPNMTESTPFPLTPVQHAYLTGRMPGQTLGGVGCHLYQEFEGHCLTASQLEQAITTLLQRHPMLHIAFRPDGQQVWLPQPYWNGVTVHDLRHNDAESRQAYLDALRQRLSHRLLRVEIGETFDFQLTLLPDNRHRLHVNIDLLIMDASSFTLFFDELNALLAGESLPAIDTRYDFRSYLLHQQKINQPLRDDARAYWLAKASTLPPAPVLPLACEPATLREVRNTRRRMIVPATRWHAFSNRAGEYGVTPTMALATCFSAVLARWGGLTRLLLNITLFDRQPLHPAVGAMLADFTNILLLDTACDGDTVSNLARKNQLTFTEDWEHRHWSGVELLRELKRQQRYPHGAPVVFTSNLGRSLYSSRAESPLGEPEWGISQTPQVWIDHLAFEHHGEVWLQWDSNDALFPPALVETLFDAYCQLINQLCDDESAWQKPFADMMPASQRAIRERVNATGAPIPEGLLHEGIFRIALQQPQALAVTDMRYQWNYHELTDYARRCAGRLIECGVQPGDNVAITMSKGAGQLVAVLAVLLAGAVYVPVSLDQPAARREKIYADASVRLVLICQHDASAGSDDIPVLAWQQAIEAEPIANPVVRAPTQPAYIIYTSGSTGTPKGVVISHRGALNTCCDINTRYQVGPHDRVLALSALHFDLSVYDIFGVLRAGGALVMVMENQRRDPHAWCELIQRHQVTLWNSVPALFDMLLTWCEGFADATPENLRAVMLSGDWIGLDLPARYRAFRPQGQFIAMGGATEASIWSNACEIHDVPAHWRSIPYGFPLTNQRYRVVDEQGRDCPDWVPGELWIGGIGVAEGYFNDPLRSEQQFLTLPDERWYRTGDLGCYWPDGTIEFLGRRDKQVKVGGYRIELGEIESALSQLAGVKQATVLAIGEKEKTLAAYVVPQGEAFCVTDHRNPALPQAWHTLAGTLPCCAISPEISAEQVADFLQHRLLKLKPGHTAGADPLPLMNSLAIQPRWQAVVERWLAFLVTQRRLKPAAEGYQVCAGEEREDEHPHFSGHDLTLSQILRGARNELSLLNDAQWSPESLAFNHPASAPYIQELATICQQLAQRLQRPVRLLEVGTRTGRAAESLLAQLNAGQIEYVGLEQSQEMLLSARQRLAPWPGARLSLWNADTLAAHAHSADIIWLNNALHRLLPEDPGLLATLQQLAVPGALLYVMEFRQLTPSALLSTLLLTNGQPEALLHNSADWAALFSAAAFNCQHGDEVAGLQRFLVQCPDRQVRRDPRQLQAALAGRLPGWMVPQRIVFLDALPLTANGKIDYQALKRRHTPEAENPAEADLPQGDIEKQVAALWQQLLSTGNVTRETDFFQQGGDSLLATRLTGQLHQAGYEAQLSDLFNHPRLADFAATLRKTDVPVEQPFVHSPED

Regarding `Nc1ncnc2c1ncn2[C@@H]1O[C@H](COS(=O)(=O)NC(=O)[C@@H](N)CS)[C@@H](O)[C@H]1O` [4c, cysteyl-AMS], in series [1], the “increase in HMWP2 inhibition on inclusion of β-thio group” value is “≈ 2 orders of magnitude” and the “increase in inhibitory potency by β-thiol side chain” value is 30–60 fold. Take salicyl-AMS: the “inhibition of yersiniabactin production” value in the series with Y. pestis [2] is listed as “blocks yersiniabactin production”.

Regarding `C[C@H](O)C(=O)NS(=O)(=O)OC[C@H]1O[C@@H](n2cnc3c(N)ncnc32)[C@H](O)[C@@H]1O` [4b, lactyl-AMS], in series [3] (all three strains (E. coli, B. subtilis, M. smegmatis), 100 µM extracellular concentration applied), the intracellular concentration was 28 to 53 µM.

`C[C@H](N)C(=O)NS(=O)(=O)OC[C@H]1O[C@@H](n2cnc3c(N)ncnc32)[C@H](O)[C@@H]1O` [4a, alanyl-AMS]: the “penetration of bacteria above the limits of detection” value in series [3] (E. coli, B. subtilis, M. smegmatis) was “did not penetrate”. Take `Nc1ncnc2c1nc1n2[C@@H]2O[C@H](COS(=O)(=O)NC(=O)[C@@H](O)CCC1)[C@@H](O)[C@H]2O` [5b, cyclo-lactyl-AMS]: the “inhibitory activity in in vitro translation assay” value in series [4] is “inactive”. With `Nc1ncnc2c1ncn2[C@@H]1O[C@H](COS(=O)(=O)NC(=O)[C@@H](O)CS)[C@@H](O)[C@H]1O` [4d, α-hydroxy-cysteyl-AMS], in series [1], the “IC50 relative to alanyl-AMS (4a)” value is at most 15 fold, the “increase in HMWP2 inhibition on inclusion of β-thio group” value is on record as “≈ 2 orders of magnitude” and the “increase in inhibitory potency by β-thiol side chain” value is 30–60 fold.

As for `Nc1ncnc2c1nc1n2[C@@H]2O[C@H](COS(=O)(=O)NC(=O)[C@@H](N)CCC1)[C@@H](O)[C@H]2O` [5a, cyclo-alanyl-AMS], the “inhibitory activity in in vitro translation assay” value in series [4] is “inactive”. For the same molecule, the “inhibition of yersiniabactin production” value with Y. pestis [5] is listed as “did not inhibit”.
